Test results: US20210395239A1 (Hoffmann-La Roche Inc., priority 2018, published 2021)
Blank lines part the entries; values can stand above or below the compound they belong to.

Assays:
CYP2D6 = target: T1, CYP2D6 (Homo sapiens, UniProt P10635); assay: CYP inhibition assay in human liver microsome, CYP2D6; format: in vitro ADME; conditions: human, human liver microsomes, probe dextromethorphan 5 μM, substrate dextromethorphan 5 μM, second value of 2C9/2D6/3A4
T1 construct: tissue BD-Gentest 452117; host or cells: human liver microsomes
T1 sequence (P10635 whole entry): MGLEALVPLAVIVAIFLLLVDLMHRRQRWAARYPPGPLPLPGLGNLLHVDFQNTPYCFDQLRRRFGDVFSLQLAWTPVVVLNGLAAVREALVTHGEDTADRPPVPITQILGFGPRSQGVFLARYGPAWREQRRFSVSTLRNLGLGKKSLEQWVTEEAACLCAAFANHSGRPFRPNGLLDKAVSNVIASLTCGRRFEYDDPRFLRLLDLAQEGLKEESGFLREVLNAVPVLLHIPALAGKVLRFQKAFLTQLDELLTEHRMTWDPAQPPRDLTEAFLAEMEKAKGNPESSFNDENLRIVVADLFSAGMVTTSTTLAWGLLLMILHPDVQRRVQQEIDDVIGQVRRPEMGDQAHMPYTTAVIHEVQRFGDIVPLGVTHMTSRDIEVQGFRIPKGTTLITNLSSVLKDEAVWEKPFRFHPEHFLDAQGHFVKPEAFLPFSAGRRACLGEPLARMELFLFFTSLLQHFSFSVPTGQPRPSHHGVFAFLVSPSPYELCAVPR
Experimental: This is a high throughput screening assay used for assessment of reversible inhibition of CYP2C9, CYP2D6, and CYP3A4 activity of test compounds in human liver microsome (HLM) in early discovery stage.
10 mM DMSO stock solutions of test compounds were diluted in DMSO to generate 2 mM intermediate stock solution. 250 nL, of intermediate stock solution were transferred in duplicate into 3 separate 384 well microtitre plates (assay-ready plates). A mixture of HLM and each substrate was made up. 45 μL of HLM substrate mix was then transferred to each well of an assay ready plate and mixed. The negative (solvent) and positive controls (standard inhibitor for each CYP) were included in each assay ready plate. The assay ready plate was warmed to 37° C. in an incubator over 10 minutes. 5 μL pre-warmed NADPH regenerating system was added to each incubation well to start the reaction. Final incubation volume was 50 μL. The assay plate then was placed back in the 37° C. incubator. After incubation (10 minutes for CYP2D6) for 5 minutes, incubates were quenched by addition of 50 μL 100% acetonitrile containing internal standards (400 ng/mL 13C6-4′-OH-Diclofenac, 20 ng/mL D3-Dextrorphan and 20 ng/mL D4-1′OH-Midazolam). The supernatants were collected for RapidFire/MS/MS analysis.
RapidFire online solid phase extraction/sample injection system (Agilent) coupled with API4000 triple quadrupole mass spectrometer (AB Sciex) were used for sample analysis. The mobile phase composed of acetonitrile and water supplemented with 0.1% formic acid. A C4 solid phase extraction cartridge is used for sample separation. MS detection is achieved in positive ion MRM mode.
Peak areas for substrate, metabolite and internal standard are determined using the RapidFire integrator software (version 3.6.12009.12296). Peak area ratios (PAR) of metabolite and internal standard (stable-labelled metabolite) are then calculated. The measurement window for each experiment is then defined:
PAR (0% activity)=average PAR for all incubations containing concentrated inhibitor; Par (100% activity)=average PAR for all incubations containing no inhibitor (DMSO controls); % Activity (test inhibitor)=[PAR (test inhibitor)−PAR (0% activity)]/[PAR (100% activity)−PAR (0% activity)]; % Inhibition (test inhibitor)=100-% Activity (test inhibitor).

hERG channel = target: T2, hERG channel (Homo sapiens, UniProt Q12809); assay: hERG channel inhibition assay (patch-clamp, CHOhERG cells); format: cell-based; conditions: for IC20: human, CHO cells stably expressing hERG (CHOhERG); for IC20 / IC50: patch-clamp, CHOhERG cells; for hERG IC20/TLR7 IC50 / hERG IC20/TLR8 IC50 / hERG IC20/TLR9 IC50: safety ratio
T2 construct: expressed in transfected cells; host or cells: CHO (Chinese hamster ovary)
T2 sequence (Q12809 whole entry): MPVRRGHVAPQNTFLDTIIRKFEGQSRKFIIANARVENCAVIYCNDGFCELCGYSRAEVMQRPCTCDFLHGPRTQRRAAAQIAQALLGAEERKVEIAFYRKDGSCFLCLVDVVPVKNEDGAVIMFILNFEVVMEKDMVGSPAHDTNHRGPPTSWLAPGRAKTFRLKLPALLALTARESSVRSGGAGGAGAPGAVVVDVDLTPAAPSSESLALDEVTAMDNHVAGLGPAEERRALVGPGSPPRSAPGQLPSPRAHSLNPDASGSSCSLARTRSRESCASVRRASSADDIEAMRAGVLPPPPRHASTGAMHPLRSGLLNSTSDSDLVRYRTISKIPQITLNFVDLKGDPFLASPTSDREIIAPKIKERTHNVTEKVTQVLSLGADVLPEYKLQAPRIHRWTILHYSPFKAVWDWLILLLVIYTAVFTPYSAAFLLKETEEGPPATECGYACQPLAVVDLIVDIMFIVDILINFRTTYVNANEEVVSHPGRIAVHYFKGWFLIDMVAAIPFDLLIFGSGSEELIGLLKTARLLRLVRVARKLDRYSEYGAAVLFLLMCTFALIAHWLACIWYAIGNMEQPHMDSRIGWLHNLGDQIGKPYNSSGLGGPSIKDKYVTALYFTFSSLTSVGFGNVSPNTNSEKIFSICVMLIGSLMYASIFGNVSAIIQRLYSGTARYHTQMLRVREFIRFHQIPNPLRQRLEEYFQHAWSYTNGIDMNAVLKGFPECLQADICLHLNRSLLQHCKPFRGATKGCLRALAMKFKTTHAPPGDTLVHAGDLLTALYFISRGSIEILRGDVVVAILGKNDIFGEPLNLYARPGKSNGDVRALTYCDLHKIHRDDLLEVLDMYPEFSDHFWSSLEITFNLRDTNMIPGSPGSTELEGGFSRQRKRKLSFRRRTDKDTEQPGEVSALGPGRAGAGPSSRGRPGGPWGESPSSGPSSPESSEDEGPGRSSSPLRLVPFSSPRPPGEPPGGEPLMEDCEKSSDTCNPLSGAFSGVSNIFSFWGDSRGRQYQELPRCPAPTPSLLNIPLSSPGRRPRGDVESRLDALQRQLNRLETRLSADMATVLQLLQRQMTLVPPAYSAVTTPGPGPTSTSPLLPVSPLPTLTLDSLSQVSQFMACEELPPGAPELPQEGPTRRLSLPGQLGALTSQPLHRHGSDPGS
Experimental: hERG Channel Inhibition Assay:
The hERG K^+ channels were cloned in humans and stably expressed in a CHO (Chinese hamster ovary) cell line. CHOhERG cells were used for patch-clamp (voltage-clamp, whole-cell) experiments. Cells were stimulated by a voltage pattern to activate hERG channels and conduct IKhERG currents (rapid delayed outward rectifier potassium current of the hERG channel). After the cells were stabilized for a few minutes, the amplitude and kinetics of IKhERG were recorded at a stimulation frequency of 0.1 Hz, (6 bpm). Thereafter, the test compound was added to the preparation at increasing concentrations. For each concentration, an attempt was made to reach a steady-state effect, usually, this was achieved within 3-10 min at which time the next highest concentration was applied. The amplitude and kinetics of IKhERG are recorded in each concentration of the drug which were compared to the control values (taken as 100%). (references: Redfern W S, Carlsson L, Davis A S, Lynch W G, MacKenzie I, Palethorpe S, Siegl P K, Strang I, Sullivan A T, Wallis R, Camm A J, Hammond T G. 2003; Relationships between preclinical cardiac electrophysiology, clinical QT interval prolongation and torsade de pointes for a broad range of drugs: evidence for a provisional safety margin in drug development. Cardiovasc. Res. 58:32-45, Sanguinetti M C, Tristani-Firouzi M. 2006; hERG potassium channels and cardiac arrhythmia. Nature 440:463-469, Webster R, Leishman D, Walker D. 2002; Towards a drug concentration effect relationship for QT prolongation and torsades de pointes. Curr. Opin. Drug Discov. Devel. 5:116-26).

inhibition at 10 min, 10 µM (CYP2D6): 5%
Compound: C[C@@H]1CN(c2ccc(C#N)c3ncccc23)C[C@H](CN2CCC(c3cccc(N4CCNCC4)c3)C2)O1 (stereo partly drawn) [Example 1, 5-[(2R,6S)-2-methyl-6-[[3-(3-piperazin-1-ylphenyl)pyrrolidin-1-yl]methyl]morpholin-4-yl]quinoline-8-carbonitrile]

inhibition at 10 min, 10 µM (CYP2D6): 20%
Compound: C[C@@H]1CN(c2ccc(C#N)c3ncccc23)C[C@H](CN2CCC(c3cccc(C4CCNCC4)c3)CC2)O1 [Example 2, 5-[(2R,6S)-2-methyl-6-[[4-[3-(4-piperidyl)phenyl]-1-piperidyl]methyl]morpholin-4-yl]quinoline-8-carbonitrile]

inhibition at 10 min, 10 µM (CYP2D6): 13.5%
Compound: C[C@@H]1CN(c2ccc(C#N)c3ncccc23)C[C@H](CN2CC(c3ccc(N4CCNCC4)cc3)C2)O1 [Example 3, 5-[(2R,6S)-2-methyl-6-[[3-(4-piperazin-1-ylphenyl)azetidin-1-yl]methyl]morpholin-4-yl]quinoline-8-carbonitrile]

inhibition at 10 min, 10 µM (CYP2D6): 11%
Compound: C[C@@H]1CN(c2ccc(C#N)c3ncccc23)C[C@H](CN2CC(c3cccc(N4CCNCC4)c3)C2)O1 [Example 4, 5-[(2R,6S)-2-methyl-6-[[3-(3-piperazin-1-ylphenyl)azetidin-1-yl]methyl]morpholin-4-yl]quinoline-8-carbonitrile]

Compound: CO[C@@H]1CN(c2nccc(N3CCN(C[C@H]4CN(c5ccc(C#N)c6nccnc56)C[C@@H](C)O4)CC3)n2)C[C@H]1N [Example 98, 8-[(2S,6R)-2-[[4-[2-[(3R,4R)-3-amino-4-methoxy-pyrrolidin-1-yl]pyrimidin-4-yl]piperazin-1-yl]methyl]-6-methyl-morpholin-4-yl]quinoxaline-5-carbonitrile]
IC20 (hERG channel): > 10 µM | IC50 (hERG channel): > 20 µM | hERG IC20/TLR7 IC50 (hERG channel): >1666 | hERG IC20/TLR8 IC50 (hERG channel): >10000 | hERG IC20/TLR9 IC50 (hERG channel): >204

Compound: CO[C@H]1CN(c2nccc(N3CCN(C[C@H]4CN(c5ccc(C#N)c6nccnc56)C[C@@H](C)O4)CC3)n2)C[C@@H]1N [Example 99, 8-[(2S,6R)-2-[[4-[2-[(3S,4S)-3-amino-4-methoxy-pyrrolidin-1-yl]pyrimidin-4-yl]piperazin-1-yl]methyl]-6-methyl-morpholin-4-yl]quinoxaline-5-carbonitrile]
IC20 (hERG channel): 9 µM | IC50 (hERG channel): > 20 µM | hERG IC20/TLR7 IC50 (hERG channel): 818 | hERG IC20/TLR8 IC50 (hERG channel): 9000 | hERG IC20/TLR9 IC50 (hERG channel): 142

inhibition at 10 min, 10 µM (CYP2D6): 3%
Compound: CO[C@H]1CN(c2nc(C)cc(N3CCN(C[C@H]4CN(c5ccc(C#N)c6nccnc56)C[C@@H](C)O4)CC3)n2)C[C@@H]1N [Example 106, 8-[(2S,6R)-2-[[4-[2-[(3S,4S)-3-amino-4-methoxy-pyrrolidin-1-yl]-6-methyl-pyrimidin-4-yl]piperazin-1-yl]methyl]-6-methyl-morpholin-4-yl]quinoxaline-5-carbonitrile]

inhibition at 10 min, 10 µM (CYP2D6): 16%
Compound: C[C@@H]1CN(c2ccc(C#N)c3nccnc23)C[C@H](CN2CCN(c3ccnc(N4C[C@H](N)[C@@H](F)C4)n3)CC2)O1 [Example 107, 8-[(2S,6R)-2-[[4-[2-[(3S,4S)-3-amino-4-fluoro-pyrrolidin-1-yl]pyrimidin-4-yl]piperazin-1-yl]methyl]-6-methyl-morpholin-4-yl]quinoxaline-5-carbonitrile]

inhibition at 10 min, 10 µM (CYP2D6): 13.5%
Compound: C[C@@H]1CN(c2ccc(C#N)c3ncccc23)C[C@H](CN2CCN(c3ccnc(N4C[C@H](N)[C@@H](F)C4)n3)CC2)O1 [Example 110, 5-[(2S,6R)-2-[[4-[2-[(3S,4S)-3-amino-4-fluoro-pyrrolidin-1-yl]pyrimidin-4-yl]piperazin-1-yl]methyl]-6-methyl-morpholin-4-yl]quinoline-8-carbonitrile]

inhibition at 10 min, 10 µM (CYP2D6): -2%
Compound: Cc1cc(N2CCN(C[C@H]3CN(c4ccc(C#N)c5nccnc45)C[C@@H](C)O3)CC2)nc(N2CC(N)C2)n1 [Example 112, 8-[(2S,6R)-2-[[4-[2-(3-aminoazetidin-1-yl)-6-methyl-pyrimidin-4-yl]piperazin-1-yl]methyl]-6-methyl-morpholin-4-yl]quinoxaline-5-carbonitrile]

inhibition at 10 min, 10 µM (CYP2D6): 10%
Compound: Cc1ccc(N2C[C@H](CN3CCN(c4nccc(N5CCNCC5)n4)CC3)O[C@H](C)C2)c2nccnc12 [Example 116, (2R,6S)-2-methyl-4-(8-methylquinoxalin-5-yl)-6-[[4-(4-piperazin-1-ylpyrimidin-2-yl)piperazin-1-yl]methyl]morpholine]

inhibition at 10 min, 10 µM (CYP2D6): 4.5%
Compound: Cc1ccc(N2C[C@H](CN3CCN(c4ccnc(N5CCNCC5)n4)CC3)O[C@H](C)C2)c2nccnc12 [Example 117, (2R,6S)-2-methyl-4-(8-methylquinoxalin-5-yl)-6-[[4-(2-piperazin-1-ylpyrimidin-4-yl)piperazin-1-yl]methyl]morpholine]

Compound: C[C@@H]1CN(c2ccc(C#N)c3nccnc23)C[C@H](CN2CCN(c3nccc(N4CC(N)C4)n3)CC2)O1 [Example 118, 8-[(2S,6R)-2-[[4-[4-(3-aminoazetidin-1-yl)pyrimidin-2-yl]piperazin-1-yl]methyl]-6-methyl-morpholin-4-yl]quinoxaline-5-carbonitrile]
IC20 (hERG channel): > 10 µM | IC50 (hERG channel): > 20 µM | hERG IC20/TLR7 IC50 (hERG channel): >2500 | hERG IC20/TLR8 IC50 (hERG channel): >10000 | hERG IC20/TLR9 IC50 (hERG channel): >196

inhibition at 10 min, 10 µM (CYP2D6): -8.5%
Compound: C[C@@H]1CN(c2ccc(C#N)c3nccnc23)C[C@H](CN2CCN(c3nccc(N4C[C@@H](N)[C@H](F)C4)n3)CC2)O1 [Example 119, 8-[(2S,6R)-2-[[4-[4-[(3R,4R)-3-amino-4-fluoro-pyrrolidin-1-yl]pyrimidin-2-yl]piperazin-1-yl]methyl]-6-methyl-morpholin-4-yl]quinoxaline-5-carbonitrile]

inhibition at 10 min, 10 µM (CYP2D6): -4%
Compound: [2H]c1ccc2c(N3C[C@H](CN4CCN(c5nc(C)cc(N6C[C@H](OC)[C@@H](N)C6)n5)CC4)O[C@H](C)C3)ccc(C#N)c2n1 [Example 134, 5-[(2S,6R)-2-[[4-[4-[(3S,4S)-3-amino-4-methoxy-pyrrolidin-1-yl]-6-methyl-pyrimidin-2-yl]piperazin-1-yl]methyl]-6-methyl-morpholin-4-yl]-2-deuterio-quinoline-8-carbonitrile]

Compound: [2H]c1ccc2c(N3C[C@H](CN4CCN(c5nc(C)cc(N6C[C@@H](N)[C@H](OC)C6)n5)CC4)O[C@H](C)C3)ccc(C#N)c2n1 [Example 144, 5-[(2S,6R)-2-[[4-[4-[(3R,4R)-3-amino-4-methoxy-pyrrolidin-1-yl]-6-methyl-pyrimidin-2-yl]piperazin-1-yl]methyl]-6-methyl-morpholin-4-yl]-2-deuterio-quinoline-8-carbonitrile]
IC20 (hERG channel): > 10 µM | IC50 (hERG channel): > 20 µM | hERG IC20/TLR7 IC50 (hERG channel): >909 | hERG IC20/TLR8 IC50 (hERG channel): >10000 | hERG IC20/TLR9 IC50 (hERG channel): >322

inhibition at 10 min, 10 µM (CYP2D6): 12.5%
Compound: [2H]c1ccc2c(N3C[C@H](CN4CCN(c5ccc(N6CC7(CNCCO7)C6)nc5)CC4)O[C@H](C)C3)ccc(C#N)c2n1 [Example 152, 2-deuterio-5-[(2R,6S)-2-methyl-6-[[4-[6-(5-oxa-2,8-diazaspiro[3.5]nonan-2-yl)-3-pyridyl]piperazin-1-yl]methyl]morpholin-4-yl]quinoline-8-carbonitrile]

inhibition at 10 min, 10 µM (CYP2D6): -7.5%
Compound: C[C@@H]1CN(c2ccc(C#N)n3ncc(F)c23)C[C@H](CN2CC(c3ccc(N4CC(C)(N)C4)nc3)C2)O1 [Example 158, 4-[(2S,6R)-2-[[3-[6-(3-amino-3-methyl-azetidin-1-yl)-3-pyridyl]azetidin-1-yl]methyl]-6-methyl-morpholin-4-yl]-3-fluoro-pyrazolo[1,5-a]pyridine-7-carbonitrile]
